Measured values: article PMC4890535, “On the Kinetic and Allosteric Regulatory Properties of the ADP-Glucose Pyrophosphorylase from Rhodococcus jostii: An Approach to Evaluate Glycogen Metabolism in Oleaginous Bacteria” (Frontiers in Microbiology, 2016)
Where two headings read alike, the source gives them in different places.

Columns and labels:
[1] = molecular target: T1, R. jostii ADP-Glc PPase (RjoGlgC) (Rhodococcus jostii, UniProt Q0S3Y4); test: colorimetric Pi release (Malachite Green) assay of ADP-Glc synthesis, Hill fit; assay type: biochemical
T1 construct: gene glgC; full length, N-terminal His-tag (pET28c), E. coli BL21(DE3) with GroEL/GroES; start GTG changed to ATG, primer encodes MRSQPHV; homotetramer 190 kDa
T1 sequence (Q0S3Y4 1-404): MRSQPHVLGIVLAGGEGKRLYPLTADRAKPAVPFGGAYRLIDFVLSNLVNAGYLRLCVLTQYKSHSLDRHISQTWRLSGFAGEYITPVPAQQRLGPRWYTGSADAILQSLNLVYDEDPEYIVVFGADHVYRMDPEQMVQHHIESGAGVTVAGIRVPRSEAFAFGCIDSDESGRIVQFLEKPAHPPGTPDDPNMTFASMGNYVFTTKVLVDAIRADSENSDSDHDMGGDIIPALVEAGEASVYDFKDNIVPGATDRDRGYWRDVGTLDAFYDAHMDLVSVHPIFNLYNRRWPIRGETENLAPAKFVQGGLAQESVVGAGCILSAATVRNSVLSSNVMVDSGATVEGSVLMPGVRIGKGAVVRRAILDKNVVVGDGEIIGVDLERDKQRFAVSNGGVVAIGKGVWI
From the text: colorimetric Pi release (Malachite Green) assay of ADP-Glc synthesis, Hill fit on R. jostii ADP-Glc PPase (RjoGlgC)

[2] = molecular target: T1, R. jostii ADP-Glc PPase (RjoGlgC); test: as above; assay type: biochemical; conditions: no activator; co-substrate ATP; 5 mM MgCl2, pH 8.0, 37°C; read-out: S0.5
[3] = substrate: O=P(O)(O)O[C@H]1O[C@H](CO)[C@@H](O)[C@H](O)[C@H]1O; test: as above; assay type: biochemical, Rhodococcus jostii; conditions: no activator, co-substrate ATP saturating, 5 mM MgCl2, pH 8.0, 37°C
[4] = substrate: Nc1ncnc2c1ncn2[C@@H]1O[C@H](COP(=O)(O)OP(=O)(O)OP(=O)(O)O)[C@@H](O)[C@H]1O; test: as above; assay type: biochemical, Rhodococcus jostii; conditions: no activator, co-substrate Glc-1P saturating, 5 mM MgCl2, pH 8.0, 37°C
[5] = molecular target: the molecule itself; test: SEC; Superdex 200 size exclusion chromatography of the purified enzyme; data not shown
[6] = allosteric activator; 5 mM MgCl2, ATP and Glc-1P, pH 8.0, 37°C; read-out: A0.5

With `O=P(O)(O)OC[C@H]1OC(O)(CO)[C@@H](O)[C@@H]1O` (stereo partly drawn) [Fru-6P] the EC50 [1, 6] was 2200 ± 100 µM.

`O=P(O)(O)OC[C@H]1OC(O)[C@H](O)[C@@H](O)[C@@H]1O` (stereo partly drawn) [Glc-6P] showed an EC50 ([1]; read-out: A0.5; allosteric activator; 5 mM MgCl2, ATP and Glc-1P, pH 8.0, 37°C) of 88 ± 5 µM.

In the case of `N[C@H]1[C@@H](OP(=O)(O)O)O[C@H](CO)[C@@H](O)[C@@H]1O` [GlcN-1P], the Km [2] is reported as over 6 mM.

With `O=P(O)(O)OC[C@H]1OC(O)[C@@H](O)[C@@H](O)[C@@H]1O` (stereo partly drawn) [Man-6P] the EC50 [1, 6] was 56 ± 5 µM.

Molecule `C=C(OP(=O)(O)O)C(=O)O` [PEP] has an EC50 ([1]; read-out: A0.5) of 300 ± 200 µM.

`O=P(O)(O)OC[C@H]1OC(O)[C@H](O)[C@@H]1O` (stereo partly drawn) [Rib-5P] was tested, and the EC50 [1, 6] was 4000 ± 500 µM.

B1: ADP-glucose pyrophosphorylase from Rhodococcus jostii RHA1 (enzyme, UniProt Q0S3Y4 1-404, looked up)
chain: MRSQPHVLGIVLAGGEGKRLYPLTADRAKPAVPFGGAYRLIDFVLSNLVNAGYLRLCVLTQYKSHSLDRHISQTWRLSGFAGEYITPVPAQQRLGPRWYTGSADAILQSLNLVYDEDPEYIVVFGADHVYRMDPEQMVQHHIESGAGVTVAGIRVPRSEAFAFGCIDSDESGRIVQFLEKPAHPPGTPDDPNMTFASMGNYVFTTKVLVDAIRADSENSDSDHDMGGDIIPALVEAGEASVYDFKDNIVPGATDRDRGYWRDVGTLDAFYDAHMDLVSVHPIFNLYNRRWPIRGETENLAPAKFVQGGLAQESVVGAGCILSAATVRNSVLSSNVMVDSGATVEGSVLMPGVRIGKGAVVRRAILDKNVVVGDGEIIGVDLERDKQRFAVSNGGVVAIGKGVWI
notes: ADP-glucose pyrophosphorylase (EC 2.7.7.27), product of glgC of Rhodococcus jostii RHA1; gene of 1,215 bp, theoretical molecular mass 43.85 kDa; amplified with primers from the initiation codon (changed from GTG to ATG) to downstream of the stop codon; Homotetramer by size exclusion chromatography; also called R. jostii ADP-Glc PPase; ADP-Glc PPase; source: E. coli BL21 (DE3) harboring pGro7 …
In the case of B1, the K0.5 [3] is reported as 1.8 ± 0.2 mM, the K0.5 [4] is reported as 1.2 ± 0.1 mM and the “stoichiometry N” value [5] is reported as 4.
